Entries after “also recorded” stand apart in the source; their conditions may differ.
Key:
[1] = system: Staphylococcus aureus 209P; assay: MIC, antibacterial activity (agar dilution); assay type: cell-based; details: Mueller Hinton Agar, about 18 h at about 37° C
[2] = system: Staphylococcus aureus S tA 2; assay: MIC, antibacterial activity (agar dilution); assay type: cell-based; details: STA2, Mueller Hinton Agar, about 18 h at about 37° C
Staphylococcus epidermis = assay: MIC, antibacterial activity (agar dilution); assay type: cell-based; details: Mueller Hinton Agar, about 18 h at about 37° C
Staphylococcus faecalis = assay: MIC, antibacterial activity (agar dilution); assay type: cell-based; details: Mueller Hinton Agar, about 18 h at about 37° C
Streptococcus bovis 3 = assay: MIC, antibacterial activity (agar dilution); assay type: cell-based; details: Streptococcus equinus, Mueller Hinton Agar, about 18 h at about 37° C
Streptococcus bovis 5 = assay: MIC, antibacterial activity (agar dilution); assay type: cell-based; details: Streptococcus equinus, Mueller Hinton Agar, about 18 h at about 37° C
Streptococcus uberis 3 = assay: MIC, antibacterial activity (agar dilution); assay type: cell-based; details: Mueller Hinton Agar, about 18 h at about 37° C
Streptococcus uberis 8 = assay: MIC, antibacterial activity (agar dilution); assay type: cell-based; details: Mueller Hinton Agar, about 18 h at about 37° C
[3] = system: Escherichia coli INRA ECi; assay: MIC, antibacterial activity (agar dilution); assay type: cell-based; details: Mueller Hinton Agar, about 18 h at about 37° C
[4] = system: Bacteroides thetaiotaomicron ATCC 29741; assay: MIC, antibacterial activity (agar dilution); assay type: cell-based; details: ATCC29741, anaerobic, Mueller Hinton Agar + 2% Fildes, about 48 h at about 37° C
Procedure: (§1) Description of the test method used
(§2) The strains used, identified in the following table, were thawed at the time of use and then diluted to obtain the following concentrations:
(§3) 10^7 bacteria/ml for the aerobic bacteria
(§4) 10^6 bacteria/ml for the anaerobic bacteria.
(§5) A stock suspension of the product of formula (II) was prepared at a concentration of 3000 mg/1 in water. It was then diluted with water to obtain concentrations of 300 mg/l, 100 mg/l, 50 mg/l and 25 mg/l.
(§6) The culture media were the following:
(§7) Mueller Hinton Agar (MHA) for the aerobic cultures
(§8) Mueller Hinton Agar (MHA)+2% Fildes (MHA) for the anaerobic cultures.
(§9) Each dilution of product was added to 20 mls of the culture medium maintained supercooled at 45° C., and the medium was then poured into Petri dishes. After gentle agitation, the dishes were dried open for about 1 hour at about 37° C.
(§10) Inoculation was carried out with a DENLEY multipoint inoculator, which deposited 10^-3 ml of each inoculum per spot.
(§11) Reading was performed after about 18 hours of incubation at about 37° C. for the aerobes and about 48 hours at about 37° C. for the anaerobes.
(§12) The minimal inhibitory concentration (MIC) was the lowest concentration for which no growth was observed.

Escherichia coli DC2 = assay: MIC, antibacterial activity (agar dilution); assay type: cell-based; details: Mueller Hinton Agar, about 18 h at about 37° C
Procedure: as §1, §2, §3, §4, §5, §6, §7, §8, §9, §10, §11, §12

[5] = system: Klebsiella pneumoniae Caroli; assay: MIC, antibacterial activity (agar dilution); assay type: cell-based; details: Mueller Hinton Agar, about 18 h at about 37° C
[6] = system: Enterobacter cloacae IP 085; assay: MIC, antibacterial activity (agar dilution); assay type: cell-based; details: IP085, Mueller Hinton Agar, about 18 h at about 37° C
[7] = system: Pseudomonas aeruginosa IP A 237; assay: MIC, antibacterial activity (agar dilution); assay type: cell-based; details: IPA237, Mueller Hinton Agar, about 18 h at about 37° C
Pasterella multocida IP = assay: MIC, antibacterial activity (agar dilution); assay type: cell-based; details: Mueller Hinton Agar, about 18 h at about 37° C
Proteus vulgaris IP A272 = assay: MIC, antibacterial activity (agar dilution); assay type: cell-based; details: IPA272, Mueller Hinton Agar, about 18 h at about 37° C
[8] = system: Bacteroides melaninogenicus ATCC 15930; assay: MIC, antibacterial activity (agar dilution); assay type: cell-based; details: Prevotella intermedia, ATCC15930; anaerobic, Mueller Hinton Agar + 2% Fildes, about 48 h at about 37° C
[9] = Use as a growth factor in weaned piglets (Example 5); assay type: in vivo, weaned Large-White Belgian Landrace crossed piglets; details: for Initial weight: start of period 14-28 days; for Index of consumption: consumption/weight gain ratio
[10] = Use as a growth factor in piglets (Example 6); assay type: in vivo, weaned Large-White Belgian Landrace crossed piglets; details: for Final weight: control 24.7
Description: 130 weaned Large-White Belgian Landrace crossed piglets were used. The experiment began 2 weeks after weaning of the animals, i.e. at a mean age of 42 days.
The animals received the experimental feed ad libitum in the form of granules 2.5 mm in diameter.
The animals were weighed at the beginning, middle and end of the experiment. The consumptions were noted every week.
Tables 7, 8 and 9 respectively show the percentage composition and the characteristics of the diets, the percentage composition of the CMV and the percentage composition of the premixes.
The results are shown in Table 10 for the period 0-14 days, Table 11 for the period 14-28 days and Table 12 for the period 0-28 days.

Structure (SMILES): C/C=C\C=C\C1OC(O)(C(CC)C(=O)NC/C=C/C=C(\C)C(OC)C(C)C2CC(O)C(/C=C/C=C/C=C/C(=O)O)O2)C(O)C(O)C1(C)C (centres unmarked) [formula (II)]
- MIC [1]: > 300 µg/mL
- MIC [2]: > 300 µg/mL
- MIC (Staphylococcus epidermis): > 300 µg/mL
- MIC (Staphylococcus faecalis): > 300 µg/mL
- MIC (Streptococcus bovis 3): > 300 µg/mL
- MIC (Streptococcus bovis 5): 25 µg/mL
- MIC (Streptococcus uberis 3): 50 µg/mL
- MIC (Streptococcus uberis 8): 100 µg/mL
- MIC [3]: > 300 µg/mL
- MIC [4]: > 100 µg/mL
- MIC (Escherichia coli DC2): 100 µg/mL
- MIC [5]: > 300 µg/mL
- MIC [6]: > 300 µg/mL
- MIC [7]: > 300 µg/mL
- MIC (Pasterella multocida IP): > 300 µg/mL
- MIC (Proteus vulgaris IP A272): > 300 µg/mL
- MIC [8]: > 100 µg/mL
- Weight gain ([9]; 40 ppm in feed, 0-14 days, control 329): 360 g/day
- Consumption ([9]; 40 ppm in feed, 0-14 days, control 614): 625 g/day
- Weight gain ([9]; 40 ppm in feed, 0-28 days, control 445): 490 g/day
- Consumption ([9]; 40 ppm in feed, 0-28 days, control 822): 847 g/day
- Weight gain ([9]; 40 ppm in feed, 14-28 days, control 560): 620 g/day
- Consumption ([9]; 40 ppm in feed, 14-28 days, control 1031): 1068 g/day
- Intermediate Weight ([9]; 40 ppm in feed, Table 4, 0-14 days, control 15.3): 15.8 kg
- Intermediate Weight ([9]; 40 ppm in feed, Table 5, 14-28 days, control 23.1): 24.5 kg
- Intermediate Weight ([9]; 40 ppm in feed, Table 6, 0-28 days, control 23.1): 24.5 kg
- Initial weight ([9]; 40 ppm in feed, control 15.3): 15.8 kg
- improvement in growth relative to the basic diet ([9]; 40 ppm, overall period 0-28 days): 10%
- performances of the animals (in words) ([9]; 60 ppm compared with the same product at 40 ppm, 0-28 days): somewhat behind those observed with the same product at 40 ppm
- Weight gain ([9]; 60 ppm in feed, 0-14 days, control 329): 338 g/day
- Consumption ([9]; 60 ppm in feed, 0-14 days, control 614): 599 g/day
- Weight gain ([9]; 60 ppm in feed, 0-28 days, control 445): 463 g/day
- Consumption ([9]; 60 ppm in feed, 0-28 days, control 822): 812 g/day
- Weight gain ([9]; 60 ppm in feed, 14-28 days, control 560): 588 g/day
- Consumption ([9]; 60 ppm in feed, 14-28 days, control 1031): 1026 g/day
- Intermediate Weight ([9]; 60 ppm in feed, Table 4, 0-14 days, control 15.3): 15.3 kg
- Intermediate Weight ([9]; 60 ppm in feed, Table 5, 14-28 days, control 23.1): 23.5 kg
- Intermediate Weight ([9]; 60 ppm in feed, Table 6, 0-28 days, control 23.1): 23.5 kg
- Initial weight ([9]; 60 ppm in feed, control 15.3): 15.3 kg
- Index of consumption ([9]; 40 ppm in feed, 0-14 days, control 1.88): 1.77
- Index of consumption ([9]; 40 ppm in feed, 0-28 days, control 1.85): 1.73
- Index of consumption ([9]; 40 ppm in feed, 14-28 days, control 1.86): 1.73
- Index of consumption ([9]; 60 ppm in feed, 0-14 days, control 1.88): 1.78
- Index of consumption ([9]; 60 ppm in feed, 0-28 days, control 1.85): 1.75
- Index of consumption ([9]; 60 ppm in feed, 14-28 days, control 1.86): 1.74
- effect on index of consumption (in words) ([9]; overall period 0-28 days): improved quite significantly
- effect on consumption (in words) ([9]; overall period 0-28 days, listed as product II): did not bring about a significant improvement in consumption; also recorded: comparable to tylosin
- Index of consumption ([10]; 10 ppm in feed, 0-14 days, control 1.76): 1.70
- Weight gain ([10]; 10 ppm in feed, 0-14 days, control 368): 418 g/day
- Consumption ([10]; 10 ppm in feed, 0-14 days, control 645): 694 g/day
- Index of consumption ([10]; 10 ppm in feed, 0-28 days, control 1.80): 1.72
- Weight gain ([10]; 10 ppm in feed, 0-28 days, control 474): 533 g/day
- Consumption ([10]; 10 ppm in feed, 0-28 days, control 852): 914 g/day
- Index of consumption ([10]; 10 ppm in feed, 14-28 days, control 1.84): 1.75
- Weight gain ([10]; 10 ppm in feed, 14-28 days, control 579): 648 g/day
- Consumption ([10]; 10 ppm in feed, 14-28 days, control 1059): 1133 g/day
- Final weight ([10]; 10 ppm in feed, Table 11, 14-28 days): 26.4 kg
- Final weight ([10]; 10 ppm in feed, Table 12, 0-28 days): 26.4 kg
- Index of consumption ([10]; 20 ppm in feed, 0-14 days, control 1.76): 1.61
- Weight gain ([10]; 20 ppm in feed, 0-14 days, control 368): 430 g/day
- Consumption ([10]; 20 ppm in feed, 0-14 days, control 645): 689 g/day
- Index of consumption ([10]; 20 ppm in feed, 0-28 days, control 1.80): 1.69
- Weight gain ([10]; 20 ppm in feed, 0-28 days, control 474): 547 g/day
- Consumption ([10]; 20 ppm in feed, 0-28 days, control 852): 927 g/day
- Index of consumption ([10]; 20 ppm in feed, 14-28 days, control 1.84): 1.75
- Weight gain ([10]; 20 ppm in feed, 14-28 days, control 579): 664 g/day
- Consumption ([10]; 20 ppm in feed, 14-28 days, control 1059): 1164 g/day
- Final weight ([10]; 20 ppm in feed, Table 11, 14-28 days): 26.8 kg
- Final weight ([10]; 20 ppm in feed, Table 12, 0-28 days): 26.8 kg
- Index of consumption ([10]; 40 ppm in feed, 0-14 days, control 1.76): 1.70
- Weight gain ([10]; 40 ppm in feed, 0-14 days, control 368): 416 g/day
- Consumption ([10]; 40 ppm in feed, 0-14 days, control 645): 701 g/day
- Index of consumption ([10]; 40 ppm in feed, 0-28 days, control 1.80): 1.70
- Weight gain ([10]; 40 ppm in feed, 0-28 days, control 474): 532 g/day
- Consumption ([10]; 40 ppm in feed, 0-28 days, control 852): 900 g/day
- Index of consumption ([10]; 40 ppm in feed, 14-28 days, control 1.84): 1.70
- Weight gain ([10]; 40 ppm in feed, 14-28 days, control 579): 648 g/day
- Consumption ([10]; 40 ppm in feed, 14-28 days, control 1059): 1099 g/day
- Final weight ([10]; 40 ppm in feed, Table 11, 14-28 days): 26.4 kg
- Final weight ([10]; 40 ppm in feed, Table 12, 0-28 days): 26.4 kg

Reference: US5254533A, “Elfamycin” (Rhone-Poulenc Rorer S.A., priority 1990, dated 1993)
